Experimental data as given in PubChem BioAssay AID1259407 (Chemical Carcinogenesis Research Information System (CCRIS), 2018).
The source made the active and inactive calls. No rule for the calls is given here.

Test system: CCRIS mutagenicity, Ames/micronucleus/aberration tests
Experiment: CCRIS mutagenicity studies
[1] = Test System: AMES SALMONELLA TYPHIMURIUM, Strain/Indicator: TA98, Metabolic Activation: NONE, Method: PREINCUBATION
[2] = Test System: AMES SALMONELLA TYPHIMURIUM, Strain/Indicator: TA100, Metabolic Activation: NONE, Method: PREINCUBATION

For Oc1ccc(O)cc1, which mutagenic call (End Point: IN VITRO CHROMOSOMAL ABERRATIONS, Test System: CHINESE HAMSTER OVARY CELLS, Metabolic Activation: NONE) is on record?
Its mutagenic call is “inactive; negative”.

What about the mutagenic call (End Point: IN VITRO CHROMOSOMAL ABERRATIONS, Test System: CHINESE HAMSTER OVARY CELLS, Metabolic Activation: RAT, LIVER, S-9, AROCLOR 1254) of the same compound?
The mutagenic call was “active; positive”.

And the mutagenic call (End Point: IN VITRO CHROMOSOMAL ABERRATIONS, Test System: CHINESE HAMSTER V79 CELLS, Metabolic Activation: NONE)?
Its mutagenic call is “active; positive; effective at higher doses at ph 7.4”.

What about the mutagenic call (End Point: IN VITRO CHROMOSOMAL ABERRATIONS, Test System: CHL/IU CELLS, Metabolic Activation: NONE) of the same compound?
The mutagenic call was “active; positive (structural changes)”.

And the mutagenic call (End Point: IN VITRO CHROMOSOMAL ABERRATIONS, Test System: HUMAN (MALE) PERIPHERAL BLOOD LYMPHOCYTES, Metabolic Activation: NONE)?
Its mutagenic call is “inactive; negative”.

What about the mutagenic call (End Point: IN VITRO CHROMOSOMAL ABERRATIONS, Test System: HUMAN (MALE) PERIPHERAL BLOOD LYMPHOCYTES, Metabolic Activation: RAT, LIVER, S-9, AROCLOR 1254) of the same compound?
Its mutagenic call is “inactive; negative”.

And the mutagenic call (End Point: IN VITRO CHROMOSOMAL ABERRATIONS, Test System: HUMAN PERIPHERAL LYMPHOCYTES, Metabolic Activation: NONE)?
Its mutagenic call is “active; positive (ploidy)”.

What about the mutagenic call (End Point: IN VITRO CHROMOSOMAL ABERRATIONS, Test System: HUMAN PERIPHERAL LYMPHOCYTES, Metabolic Activation: NONE, Method: FISH) of the same compound?
The mutagenic call was “active; positive (ploidy); greater effects on certain chromosomes”.

And the mutagenic call (End Point: IN VITRO CHROMOSOMAL ABERRATIONS, Test System: HUMAN PERIPHERAL LYMPHOCYTES, Metabolic Activation: NONE, Method: FISH - DUAL COLOR PROBES)?
The mutagenic call was “active; positive (structural and ploidy changes)”.

And the mutagenic call (End Point: IN VITRO CHROMOSOMAL ABERRATIONS, Test System: HUMAN PERIPHERAL LYMPHOCYTES, Metabolic Activation: NONE, Method: FISH - SINGLE COLOR)?
Its mutagenic call is “active; positive (ploidy)”.

And the mutagenic call (End Point: IN VITRO CHROMOSOMAL ABERRATIONS, Test System: HUMAN PERIPHERAL LYMPHOCYTES, Metabolic Activation: NONE, Method: FISH- DUAL COLOR PROBES)?
Its mutagenic call is “inactive; negative for translocations”.

What about the mutagenic call (End Point: IN VITRO CHROMOSOMAL ABERRATIONS, Test System: V79, Metabolic Activation: RAT, LIVER, S-9, AROCLOR 1254) of the same compound?
The mutagenic call was “active; positive; effective at higher doses at ph 7.4”.

And the mutagenic call (End Point: IN VITRO MICRONUCLEUS, Test System: CHL/IU CELLS, Metabolic Activation: NONE)?
Its mutagenic call is “active; positive”.

What about the mutagenic call (End Point: IN VITRO MICRONUCLEUS, Test System: HAMSTER V79 CELLS, Metabolic Activation: NONE) of the same compound?
The mutagenic call was “active; positive”.

And the mutagenic call (End Point: IN VITRO MICRONUCLEUS, Test System: HUMAN LYMPHOCYTES, Metabolic Activation: NONE)?
The mutagenic call was “active; positive; individuals with gstm1 null genotype more affected than those with gst”.

And the mutagenic call (End Point: In vitro chromosomal aberrations, Test System: Chinese hamster lung (CHL/IU) cells, Metabolic Activation: Rat, Liver, S9, Phenobarbital and 5,6-benzoflavone)?
The mutagenic call was “active; positive (structural changes and ploidy). toxic at 0.12 mg/ml”.

And the mutagenic call (Test System: AMES SALMONELLA TYPHIMURIUM, Strain/Indicator: TA97, Metabolic Activation: NONE, Method: STANDARD PLATE)?
Its mutagenic call is “inactive; negative”.

What about the mutagenic call (Test System: AMES SALMONELLA TYPHIMURIUM, Strain/Indicator: TA97, Metabolic Activation: RAT, LIVER, S-9, PCB, Method: STANDARD PLATE) of the same compound?
Its mutagenic call is “inactive; negative”.

What about the mutagenic call (Test System: AMES SALMONELLA TYPHIMURIUM, Strain/Indicator: TA97, Metabolic Activation: RAT, LIVER, S-9, PHENOBARBITAL, Method: PREINCUBATION) of the same compound?
The mutagenic call was “active; positive”.

What about the mutagenic call [1] of the same compound?
Its mutagenic call is “active; positive”.

What about the mutagenic call (Test System: AMES SALMONELLA TYPHIMURIUM, Strain/Indicator: TA98, Metabolic Activation: NONE, Method: STANDARD PLATE) of the same compound?
Its mutagenic call is “inactive; negative”.

What about the mutagenic call (Test System: AMES SALMONELLA TYPHIMURIUM, Strain/Indicator: TA98, Metabolic Activation: RAT, LIVER, S-9, PCB, Method: STANDARD PLATE) of the same compound?
Its mutagenic call is “inactive; negative”.

And the mutagenic call (Test System: AMES SALMONELLA TYPHIMURIUM, Strain/Indicator: TA98, Metabolic Activation: RAT, LIVER, S-9, PHENOBARBITAL, Method: PREINCUBATION)?
The mutagenic call was “active; positive”.

What about the mutagenic call [2] of the same compound?
Its mutagenic call is “active; positive”.

What about the mutagenic call (Test System: AMES SALMONELLA TYPHIMURIUM, Strain/Indicator: TA100, Metabolic Activation: NONE, Method: STANDARD PLATE) of the same compound?
The mutagenic call was “inactive; negative”.

What about the mutagenic call (Test System: AMES SALMONELLA TYPHIMURIUM, Strain/Indicator: TA100, Metabolic Activation: RAT, LIVER, S-9, PCB, Method: STANDARD PLATE) of the same compound?
The mutagenic call was “inactive; negative”.

And the mutagenic call (Test System: AMES SALMONELLA TYPHIMURIUM, Strain/Indicator: TA100, Metabolic Activation: RAT, LIVER, S-9, PHENOBARBITAL, Method: PREINCUBATION)?
Its mutagenic call is “active; positive”.

And the mutagenic call (Test System: AMES SALMONELLA TYPHIMURIUM, Strain/Indicator: TA102, Metabolic Activation: NONE, Method: STANDARD PLATE)?
Its mutagenic call is “active; positive”.

And the mutagenic call (Test System: AMES SALMONELLA TYPHIMURIUM, Strain/Indicator: TA104, Metabolic Activation: NONE, Method: PREINCUBATION)?
The mutagenic call was “active; positive”.

And the mutagenic call (Test System: UDS SHE CELLS, Strain/Indicator: THY INCORP, Metabolic Activation: NONE, Method: LIQUID SCINTILLATION COUNTING)?
The mutagenic call was “active; positive”.

What does the source list for CCCCCCCCCCCOC(=O)c1ccccc1C(=O)OCCCCCCCCCCC?
mutagenic call (Test System: AMES SALMONELLA TYPHIMURIUM, Strain/Indicator: TA98, Metabolic Activation: HAMSTER, LIVER, S-9, AROCLOR 1254 (10%), Method: PREINCUBATION): inactive; negative; mutagenic call [1]: inactive; negative; mutagenic call (Test System: AMES SALMONELLA TYPHIMURIUM, Strain/Indicator: TA98, Metabolic Activation: RAT, LIVER, S-9, AROCLOR 1254 (10%), Method: PREINCUBATION): inactive; negative; mutagenic call (Test System: AMES SALMONELLA TYPHIMURIUM, Strain/Indicator: TA100, Metabolic Activation: HAMSTER, LIVER, S-9, AROCLOR 1254 (10%), Method: PREINCUBATION): inactive; negative; mutagenic call [2]: inactive; negative; mutagenic call (Test System: AMES SALMONELLA TYPHIMURIUM, Strain/Indicator: TA100, Metabolic Activation: RAT, LIVER, S-9, AROCLOR 1254 (10%), Method: PREINCUBATION): inactive; negative; mutagenic call (Test System: AMES SALMONELLA TYPHIMURIUM, Strain/Indicator: TA1535, Metabolic Activation: HAMSTER, LIVER, S-9, AROCLOR 1254 (10%), Method: PREINCUBATION): inactive; negative; mutagenic call (Test System: AMES SALMONELLA TYPHIMURIUM, Strain/Indicator: TA1535, Metabolic Activation: NONE, Method: PREINCUBATION): inactive; negative; mutagenic call (Test System: AMES SALMONELLA TYPHIMURIUM, Strain/Indicator: TA1535, Metabolic Activation: RAT, LIVER, S-9, AROCLOR 1254 (10%), Method: PREINCUBATION): inactive; negative; mutagenic call (Test System: AMES SALMONELLA TYPHIMURIUM, Strain/Indicator: TA1537, Metabolic Activation: HAMSTER, LIVER, S-9, AROCLOR 1254 (10%), Method: PREINCUBATION): inactive; negative; mutagenic call (Test System: AMES SALMONELLA TYPHIMURIUM, Strain/Indicator: TA1537, Metabolic Activation: NONE, Method: PREINCUBATION): inactive; negative; mutagenic call (Test System: AMES SALMONELLA TYPHIMURIUM, Strain/Indicator: TA1537, Metabolic Activation: RAT, LIVER, S-9, AROCLOR 1254 (10%), Method: PREINCUBATION): inactive; negative; mutagenic call (Test System: MOUSE LYMPHOMA, Strain/Indicator: L5178Y (TK+/TK-), Metabolic Activation: NONE, Method: SUSPENSION/PLATE): inactive; negative; mutagenic call (Test System: MOUSE LYMPHOMA, Strain/Indicator: L5178Y (TK+/TK-), Metabolic Activation: RAT LIVER S-9, Method: SUSPENSION/PLATE): inactive; negative
